According to US12509437B2, “Substituted thiophene carboxamides and derivatives thereof as microbicides” (Bayer Aktiengesellschaft, priority 2019, dated 2025):
Read-outs that look alike come from different tables or passages of the source.

Tests used:
[1] = test system: Pseudomonas syringae pv. tomato; assay: Pseudomonas syringae pv. tomato in vitro cell test; assay type: cell-based; conditions: 20 ppm of active ingredient, 24 h of incubation, read-out: efficacy (inhibition of bacteria growth; no direct activity)
Experimental: (§1) • Solvent: DMSO • Culture medium: LB broth medium (Luria Broth Miller) Sigma • Inoculum: bacteria suspension Compounds were solubilized in DMSO and the solution used to prepare the required range of concentrations. The final concentration of DMSO used in the assay was ≤1%. Inoculum was prepared from a pre-culture of bacteria grown in liquid medium and diluted to the desired optical density (OD). Compounds were evaluated for their ability to inhibit bacteria growth in liquid culture assay. The compounds were added in the desired concentrations to culture medium containing the bacteria suspension. After 24 h of incubation, the efficacy of compounds was determined by spectrometric measurement of bacteria growth. Inhibition was determined by comparing the absorbance values in wells containing the compounds with the absorbance in control wells without active ingredients.

[2] = test system: Colletotrichum lindemuthianum; assay: In vivo preventive test on Colletotrichum lindemuthianum (Anthracnose on bean); conditions: Colletotrichum lindemuthianum, 144 h, sprayed 72 hours before inoculation, evaluated 6 days after inoculation, read-out: efficacy; for pest or weed control at 500 ppm: 500 ppm of active ingredient; for pest or weed control at 31 ppm: 31 ppm of active ingredient; for pest or weed control at 125 ppm: 125 ppm of active ingredient
Experimental: (§2) The tested active ingredients were prepared by homogenization in a mixture of acetone/Dimethyl sulfoxide/Tween®, and then diluted with water to obtain the desired active material concentration.
The young plants of bean were treated by spraying the active ingredient prepared as described above. Control plants were treated only with an aqueous solution of acetone/Dimethyl sulfoxide/Tween®.
After 72 hours, the plants were contaminated by spraying the leaves with an aqueous suspension of Colletotrichum lindemuthianum spores. The contaminated bean plants were incubated for 24 hours at 20° C. and at 100% relative humidity and then for 5 days at 20° C. and at 90% relative humidity.
The test was evaluated 6 days after the inoculation. 0% means an efficacy which corresponds to that of the control plants while an efficacy of 100% means that no disease was observed.

[3] = test system: Xanthomonas campestris pv. campestris; assay: Xanthomonas campestris pv. campestris in vitro cell test; assay type: cell-based; conditions: 24 h of incubation, read-out: efficacy (inhibition of bacteria growth; no direct activity); for inhibition at 5 ppm: 5 ppm of active ingredient; for inhibition at 20 ppm: 20 ppm of active ingredient
Experimental: as §1

[4] = test system: Alternaria alternata; assay: Alternaria alternata in vitro cell test; assay type: cell-based; conditions: 120 h, 5 days incubation, read-out: efficacy (inhibition of fungal growth; no direct activity); for inhibition at 5 ppm: 5 ppm of active ingredient; for inhibition at 20 ppm: 20 ppm of active ingredient
Experimental: (§3) • Solvent: DMSO • Culture medium: 14.6 g anhydrous D-glucose (VWR), 7.1 g Mycological Peptone (Oxoid), 1.4 g granulated Yeast Extract (Merck), QSP 1 liter • Inoculum: spores suspension Fungicides were solubilized in DMSO and the solution used to prepare the required range of concentrations. The final concentration of DMSO used in the assay was ≤[…]1%. A spore suspension of A. alternata was prepared and diluted to the desired spore density. Fungicides were evaluated for their ability to inhibit spore germination and mycelium growth in liquid culture assay. The compounds were added in the desired concentration to the culture medium with spores. After 5 days incubation, fungi-toxicity of compounds was determined by spectrometric measurement of mycelium growth. Inhibition of fungal growth was determined by comparing the absorbance values in wells containing the fungicides with the absorbance in control wells without fungicides.

[5] = test system: Uromyces appendiculatus; assay: In vivo preventive test on Uromyces appendiculatus (bean rust); conditions: 240 h, sprayed 72 hours before inoculation, evaluated 10 days after inoculation, read-out: efficacy; for pest or weed control at 125 ppm: 125 ppm of active ingredient; for pest or weed control at 500 ppm: 500 ppm of active ingredient; for pest or weed control at 31 ppm: 31 ppm of active ingredient
Summary of the method: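 Young bean plants sprayed with compound in acetone/DMSO/Tween diluted in water, then inoculated 72 h later with spore suspension. Incubated 24 h at 20° C., 100% RH, then 9 days at 20° C., 70-80% RH. Efficacy scored 10 days post-inoculation, 0% = untreated-control level, 100% = no disease.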

[6] = test system: Peronospora parasitica; assay: In vivo preventive test on Peronospora parasitica (Crucifer downy mildew) on cabbage; conditions: Hyaloperonospora parasitica, 120 h, sprayed 72 hours before inoculation, evaluated 5 days after inoculation, read-out: efficacy; for pest or weed control at 125 ppm: 125 ppm of active ingredient; for pest or weed control at 500 ppm: 500 ppm of active ingredient; for pest or weed control at 31 ppm: 31 ppm of active ingredient
Summary of the method: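 Young cabbage plants were sprayed with compound in aqueous acetone/DMSO/Tween, then inoculated 72 h later with P. parasitica spores and held 5 days at 20 °C, 100% RH. Efficacy scored 5 days post-inoculation: 0% equals solvent-treated controls, 100% means no disease.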

[7] = LogP by HPLC on reversed phase columns (EEC directive 79/831 Annex V.A8); assay type: physicochemical; conditions: reversed phase HPLC columns
Summary of the method: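 Reversed-phase HPLC, calibrated with straight-chain alkan-2-ones (C3–C16) of known LogP; values by linear interpolation of retention times between successive alkanones. Multiple values from one method are joined by "+"; lambda-max taken from 200–400 nm UV spectra at chromatographic peaks.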

[8] = test system: salicylate responsive promoter sequence of the PR1 (pathogenesis-related protein I) gene (AT2G14610); assay: Induction of defense gene expression in Arabidopsis thaliana (PR1 promoter-GFP reporter plants); assay type: in vivo; conditions: 72 h, 3rd day after spraying, mock treated leaves set as 1.00, read-out: relative fluorescence value
Summary of the method: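 Transgenic A. thaliana carrying GFP under the salicylate-responsive PR1 promoter, grown five days, then sprayed with compounds. Whole-plant fluorescence imaged and quantified on day 3 post-spray, expressed relative to mock-treated leaf background set at 1.00.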

[9] = test system: Colletotrichum lindemuthianum; assay: Colletotrichum lindemuthianum in vitro cell test; assay type: cell-based; conditions: 144 h, 6 days incubation, read-out: efficacy (inhibition of fungal growth; no direct activity); for inhibition at 5 ppm: 5 ppm of active ingredient; for inhibition at 20 ppm: 20 ppm of active ingredient
Experimental: as §3, with “of C. lindemuthianum” for “of A. alternata”, “inhibit spores” for “inhibit spore”, “After 6” for “After 5”

[10] = test system: Xanthomonas campestris pv. campestris; assay: In vivo preventive test on Xanthomonas campestris pv. campestris (black rot on cabbage); conditions: Xanthomonas campestris, sprayed 72 hours before inoculation, evaluated 8 or 10 days after inoculation, read-out: efficacy; for pest or weed control at 125 ppm: 125 ppm of active ingredient
Experimental: as §2
The young plants of cabbage were treated by spraying the active ingredient prepared as described above. Control plants were treated only with an aqueous solution of acetone/Dimethyl sulfoxide/Tween®.
After 72 hours, the plants were contaminated by spraying the leaves with an aqueous bacteria suspension of Xanthomonas campestris pv. campestris. The contaminated cabbage plants were incubated for 8 or 10 days at 27° C. at 95% relative humidity.
The test was evaluated 8 or 10 days after the inoculation. 0% means an efficacy which corresponds to that of the control plants while an efficacy of 100% means that no disease was observed.

[11] = preparation examples, method not indicated, read-out: Log P

C=CC1CC1(NC(=O)c1sc(Br)c(Br)c1C)C(=O)OC (centres unmarked) [I.003]
inhibition at 20 ppm [1]: ≤ 30% | pest or weed control at 500 ppm [2]: 80 to 89% | inhibition at 5 ppm [3]: ≤ 30% | inhibition at 20 ppm [3]: ≤ 30% | inhibition at 5 ppm [4]: ≤ 30% | inhibition at 20 ppm [4]: ≤ 30% | pest or weed control at 125 ppm [5]: 90 to 100% | pest or weed control at 500 ppm [5]: 90 to 100% | pest or weed control at 125 ppm [6]: 80 to 89% | pest or weed control at 500 ppm [6]: 90 to 100% | chromatographic logP ([7]; method [a]): 3.48 | fold induction at 75 ppm [8]: > 2 | inhibition at 5 ppm [9]: ≤ 30%

CCOC(=O)C1(NC(=O)c2sc(Br)c(Br)c2C)COC1 [I.014]
inhibition at 20 ppm [1]: ≤ 30% | pest or weed control at 31 ppm [2]: 70 to 79% | pest or weed control at 125 ppm [2]: 80 to 89% | pest or weed control at 500 ppm [2]: 90 to 100% | inhibition at 5 ppm [3]: ≤ 30% | inhibition at 20 ppm [3]: ≤ 30% | inhibition at 5 ppm [4]: ≤ 30% | inhibition at 20 ppm [4]: ≤ 30% | pest or weed control at 31 ppm [5]: 90 to 100% | pest or weed control at 125 ppm [5]: 90 to 100% | pest or weed control at 500 ppm [5]: 90 to 100% | pest or weed control at 31 ppm [6]: 90 to 100% | pest or weed control at 125 ppm [6]: 90 to 100% | pest or weed control at 500 ppm [6]: 90 to 100% | chromatographic logP ([7]; method [a]): 2.9 | fold induction at 75 ppm [8]: > 2 | fold induction at 300 ppm [8]: > 2 | inhibition at 5 ppm [9]: ≤ 30% | inhibition at 20 ppm [9]: ≤ 30%

CCOC(=O)[C@@H](NC(=S)c1sc(Br)c(Br)c1C)C(C)C [I.023, ethyl N-[(4,5-dibromo-3-methyl-2-thienyl)carbonothioyl]valinate]
inhibition at 20 ppm [1]: ≤ 30% | pest or weed control at 125 ppm [10]: 80 to 89% | pest or weed control at 500 ppm ([10]; 500 ppm of active ingredient): 70 to 79% | pest or weed control at 31 ppm [2]: 90 to 100% | pest or weed control at 125 ppm [2]: 90 to 100% | pest or weed control at 500 ppm [2]: 90 to 100% | inhibition at 5 ppm [3]: ≤ 30% | inhibition at 20 ppm [3]: ≤ 30% | inhibition at 5 ppm [4]: ≤ 30% | inhibition at 20 ppm [4]: ≤ 30% | pest or weed control at 31 ppm [6]: 80 to 89% | pest or weed control at 125 ppm [6]: 90 to 100% | pest or weed control at 500 ppm [6]: 90 to 100% | chromatographic logP [7, 11]: 5.22 | fold induction at 300 ppm [8]: > 2 | inhibition at 5 ppm [9]: ≤ 30% | inhibition at 20 ppm [9]: ≤ 30%

Cc1c(C(=S)N[C@H](C(=O)O)C(C)C)sc(Br)c1Br [I.031, N-[(4,5-dibromo-3-methyl-2-thienyl)carbonothioyl]valine]
inhibition at 20 ppm [1]: ≤ 30% | pest or weed control at 500 ppm [2]: 90 to 100% | inhibition at 5 ppm [3]: ≤ 30% | inhibition at 20 ppm [3]: ≤ 30% | inhibition at 5 ppm [4]: ≤ 30% | inhibition at 20 ppm [4]: ≤ 30% | pest or weed control at 500 ppm [5]: 70 to 79% | pest or weed control at 125 ppm [6]: 90 to 100% | pest or weed control at 500 ppm [6]: 90 to 100% | chromatographic logP [7, 11]: 3.72 | fold induction at 75 ppm [8]: > 2 | fold induction at 300 ppm [8]: > 2 | inhibition at 5 ppm [9]: ≤ 30% | inhibition at 20 ppm [9]: ≤ 30%

CCOC(=O)C(Cc1c[nH]c2ccccc12)NC(=O)c1sc(Cl)c(Cl)c1C (centres unmarked) [I.040]
inhibition at 20 ppm [1]: ≤ 30% | pest or weed control at 125 ppm [2]: 90 to 100% | pest or weed control at 500 ppm [2]: 90 to 100% | inhibition at 5 ppm [3]: ≤ 30% | inhibition at 20 ppm [3]: ≤ 30% | pest or weed control at 500 ppm [6]: 90 to 100% | chromatographic logP ([7]; method [a]): 4.08 | fold induction at 75 ppm [8]: > 2 | fold induction at 300 ppm [8]: > 2

COC(=O)C(CC(F)F)NC(=O)c1sc(Cl)c(Cl)c1C (centres unmarked) [I.043]
inhibition at 20 ppm [1]: ≤ 30% | pest or weed control at 31 ppm [2]: 90 to 100% | pest or weed control at 125 ppm [2]: 90 to 100% | pest or weed control at 500 ppm [2]: 90 to 100% | inhibition at 5 ppm [3]: ≤ 30% | inhibition at 20 ppm [3]: ≤ 30% | inhibition at 5 ppm [4]: ≤ 30% | inhibition at 20 ppm [4]: ≤ 30% | pest or weed control at 125 ppm [5]: 80 to 89% | pest or weed control at 500 ppm [5]: 90 to 100% | pest or weed control at 31 ppm [6]: 90 to 100% | pest or weed control at 125 ppm [6]: 90 to 100% | pest or weed control at 500 ppm [6]: 90 to 100% | chromatographic logP ([7]; method [a]): 3.25 | fold induction at 300 ppm [8]: > 2 | inhibition at 5 ppm [9]: ≤ 30%

CCOC(=O)C(CC(N)=O)NC(=O)c1sc(Cl)c(Cl)c1C (centres unmarked) [I.045]
inhibition at 20 ppm [1]: ≤ 30% | pest or weed control at 500 ppm [2]: 80 to 89% | inhibition at 5 ppm [3]: ≤ 30% | inhibition at 20 ppm [3]: ≤ 30% | inhibition at 5 ppm [4]: ≤ 30% | inhibition at 20 ppm [4]: ≤ 30% | pest or weed control at 500 ppm [5]: 90 to 100% | pest or weed control at 31 ppm [6]: 90 to 100% | pest or weed control at 125 ppm [6]: 90 to 100% | pest or weed control at 500 ppm [6]: 90 to 100% | chromatographic logP ([7]; method [a]): 2.28 | fold induction at 300 ppm [8]: > 2 | inhibition at 5 ppm [9]: ≤ 30% | inhibition at 20 ppm [9]: ≤ 30%

Cc1c(C(=O)NC(C)(C)C(=O)O)sc(Cl)c1Cl [I.174]
inhibition at 20 ppm [1]: ≤ 30% | pest or weed control at 125 ppm [10]: 70 to 79% | inhibition at 5 ppm [3]: ≤ 30% | inhibition at 20 ppm [3]: ≤ 30% | inhibition at 5 ppm [4]: ≤ 30% | inhibition at 20 ppm [4]: ≤ 30% | pest or weed control at 31 ppm [5]: 90 to 100% | pest or weed control at 125 ppm [5]: 90 to 100% | pest or weed control at 125 ppm [6]: 90 to 100% | chromatographic logP ([7]; method [a]): 2.43 | fold induction at 75 ppm [8]: > 2 | fold induction at 300 ppm [8]: > 2 | inhibition at 5 ppm [9]: ≤ 30% | inhibition at 20 ppm [9]: ≤ 30%
